This assay addresses T1, Enoyl-[acyl-carrier-protein] reductase [NADH] (UniProt A0A6F8TJQ1).
T1 sequence (A0A6F8TJQ1 whole entry): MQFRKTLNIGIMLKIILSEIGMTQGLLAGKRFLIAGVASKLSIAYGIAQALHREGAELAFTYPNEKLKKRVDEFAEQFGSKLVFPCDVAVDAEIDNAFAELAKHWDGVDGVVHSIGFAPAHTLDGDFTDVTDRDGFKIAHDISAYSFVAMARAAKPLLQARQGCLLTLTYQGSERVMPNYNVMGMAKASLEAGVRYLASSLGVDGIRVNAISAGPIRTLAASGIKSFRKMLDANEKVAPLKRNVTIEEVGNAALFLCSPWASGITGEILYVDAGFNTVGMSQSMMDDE
Briefly: standard FabI enzyme assay. The protocol: To probe the effects of varying ring systems and amine placement on FabI target engagement, the apparent inhibition constants (Kiapp) for select compounds were determined using purified FabI. The goal of these studies was two-fold, to comparatively assess fabimycin, Debio-1452-NH3, and Debio-1452, and to also assess differential activity against the E. coli and A. baumannii versions of FabI. FabI from E. coli and A. baumannii were recombinantly expressed and purified, and the ability for each compound to inhibit the activity of these enzymes was evaluated using a standard FabI enzyme assay.

A word on the Ki: it is the dissociation constant of the complex between target and ligand, obtained from inhibition or displacement. Higher therefore signals lower affinity.

As for `Cc1c(CN(C)C(=O)/C=C/c2cnc3c(c2)C[C@@H](N)C(=O)N3)oc2ccccc12` [US20240190872, Compound (+-)-Debio-1452-NH3], the inhibition constant Ki is 114 nM.
